# Assay results published in patent publication US8669271B2 (Boehringer Ingelheim International GmbH, priority 2010, dated 2014).
# Target: T1, human GPR119 (Homo sapiens, UniProt Q8TDV5)
# T1 construct: expression vector for human GPR119 cDNA (Acc. No. NP_848566); expressed in transfected cells
# T1 sequence (Q8TDV5 1-335): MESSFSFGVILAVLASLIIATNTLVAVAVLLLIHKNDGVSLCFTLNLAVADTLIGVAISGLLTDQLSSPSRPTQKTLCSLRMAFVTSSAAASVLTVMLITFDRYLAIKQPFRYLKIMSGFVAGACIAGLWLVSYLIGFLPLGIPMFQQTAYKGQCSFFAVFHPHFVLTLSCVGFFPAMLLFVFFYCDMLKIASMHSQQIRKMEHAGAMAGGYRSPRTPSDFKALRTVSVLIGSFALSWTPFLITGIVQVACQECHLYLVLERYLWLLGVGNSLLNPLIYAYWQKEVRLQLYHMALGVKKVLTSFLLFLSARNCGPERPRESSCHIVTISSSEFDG
# Experiment: AlphaScreen cAMP assay in Min-6/hGPR119 cells (activation of GPR119, intracellular cAMP)
# Type: cell-based
# Conditions: MIN6 cells stably transfected with human GPR119; cAMP by AlphaScreen after 45 minutes incubation at room temperature
# In short: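 MIN6 cells stably expressing human GPR119, seeded 24 h before treatment; compounds applied 45 min at ~20 °C in Hepes-buffered saline pH 7.4 with 0.5 mM IBMX, 0.1% BSA, 1% DMSO final. Intracellular cAMP measured by AlphaScreen.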
row,EC50 [nM],SMILES
1,7,"CC(C)(C)OC(=O)N1CCC(C2Cc3cc(C4=CCN(S(C)(=O)=O)CC4)ccc3O2)CC1 (stereo not shown) [Example 94, 4-[5-(1-Methanesulfonyl-1,2,3,6-tetrahydro-pyridin-4-yl)-2,3-dihydro-benzofuran-2-yl]-piperidine-1-carboxylic acid tert-butyl ester]"
2,17,"CC(C)OC(=O)N1CCC(C2Cc3cc(C4=CCN(S(C)(=O)=O)CC4)ncc3O2)CC1 (stereo not shown) [Example 95, 4-[5-(1-Methanesulfonyl-1,2,3,6-tetrahydro-pyridin-4-yl)-2,3-dihydro-furo[2,3-c]pyridin-2-yl]-piperidine-1-carboxylic acid isopropyl ester]"
3,15,"CS(=O)(=O)N1CC=C(c2cc3c(cn2)OC(C2CCN(C(=O)OC4CCC4)CC2)C3)CC1 (stereo not shown) [Example 96, 4-[5-(1-Methanesulfonyl-1,2,3,6-tetrahydro-pyridin-4-yl)-2,3-dihydro-furo[2,3-c]pyridin-2-yl]-piperidine-1-carboxylic acid cyclobutyl ester]"
4,7,"CC1(OC(=O)N2CCC(C3Cc4cc(C5=CCN(S(C)(=O)=O)CC5)ncc4O3)CC2)CC1 (stereo not shown) [Example 97, 4-[5-(1-Methanesulfonyl-1,2,3,6-tetrahydro-pyridin-4-yl)-2,3-dihydro-furo[2,3-c]pyridin-2-yl]-piperidine-1-carboxylic acid 1-methyl-cyclopropyl ester]"
5,15,CCS(=O)(=O)N1CCN(c2cc3c(cn2)OC(C2CCN(C(=O)OC(C)(C)C)CC2)C3)CC1 (stereo not shown) [Example 98]
6,48,"CC(C)S(=O)(=O)N1CCN(c2cc3c(cn2)OC(C2CCN(C(=O)OC(C)(C)C)CC2)C3)CC1 (stereo not shown) [Example 99, 4-{5-[4-(Propane-2-sulfonyl)-piperazin-1-yl]-2,3-dihydro-furo[2,3-c]pyridin-2-yl}-piperidine-1-carboxylic acid tert-butyl ester]"
7,9,"CCCS(=O)(=O)N1CCN(c2cc3c(cn2)OC(C2CCN(C(=O)OC(C)(C)C)CC2)C3)CC1 (stereo not shown) [Example 100, 4-{5-[4-(Propane-1-sulfonyl)-piperazin-1-yl]-2,3-dihydro-furo[2,3-c]pyridin-2-yl}-piperidine-1-carboxylic acid ten-butyl ester]"
8,23,"CC(C)(C)OC(=O)N1CCC(C2Cc3cc(N4CCN(S(=O)(=O)C5CC5)CC4)ncc3O2)CC1 (stereo not shown) [Example 101, 4-[5-(4-Cyclopropanesulfonyl-piperazin-1-yl)-2,3-dihydro-furo[2,3-c]pyridin-2-yl]-piperidine-1-carboxylic acid tert-butyl ester]"
9,637,"CN(C1CCN(c2cc3c(cn2)OC(C2CCN(C(=O)OC(C)(C)C)CC2)C3)CC1)S(C)(=O)=O (stereo not shown) [Example 102, 4-{5-[4-(Methanesulfonyl-methyl-amino)-piperidin-1-yl]-2,3-dihydro-furo[2,3-c]pyridin-2-yl}-piperidine-1-carboxylic acid tert-butyl ester]"
10,186,"CC(C)OC(=O)N1CCC(C2Cc3cc(-c4cccc(C#N)c4)ccc3O2)CC1 (stereo not shown) [Example 103, 4-[5-(3-Cyano-phenyl)-2,3-dihydro-benzofuran-2-yl]-piperidine-1-carboxylic acid isopropyl ester]"
11,200,CC(=O)c1ccc(-c2ccc3c(c2)CC(C2CCN(C(=O)OC(C)C)CC2)O3)cc1 (stereo not shown) [Example 104]
12,99,CC(C)OC(=O)N1CCC(C2Cc3cc(-c4ccc(CC#N)cc4)ccc3O2)CC1 (stereo not shown) [Example 105]
13,1710,Cc1noc(C)c1-c1ccc2c(c1)CC(C1CCN(C(=O)OC(C)C)CC1)O2 (stereo not shown) [Example 106]
14,1120,CC(C)OC(=O)N1CCC(C2Cc3cc(-c4cccc(S(C)(=O)=O)c4)ccc3O2)CC1 (stereo not shown) [Example 107]
15,1980,COc1ncc(-c2ccc3c(c2)CC(C2CCN(C(=O)OC(C)C)CC2)O3)cn1 (stereo not shown) [Example 108]
16,28,CCNC(=O)c1ccc(-c2ccc3c(c2)CC(C2CCN(C(=O)OC(C)C)CC2)O3)cc1 (stereo not shown) [Example 109]
17,52,CC(C)OC(=O)N1CCC(C2Cc3cc(-c4ccc(S(N)(=O)=O)cc4)ccc3O2)CC1 (stereo not shown) [Example 110]
18,152,CC(C)OC(=O)N1CCC(C2Cc3cc(-c4ccc(C#N)c(F)c4)ccc3O2)CC1 (stereo not shown) [Example 111]
19,320,CC(C)OC(=O)N1CCC(C2Cc3cc(-c4cnc(C#N)nc4)ccc3O2)CC1 (stereo not shown) [Example 112]
20,167,CC(C)OC(=O)N1CCC(C2Cc3cc(-c4ccncc4F)ccc3O2)CC1 (stereo not shown) [Example 113]

row,EC50 [nM],SMILES
1,527,COC(=O)c1ccc(-c2ccc3c(c2)CC(C2CCN(C(=O)OC(C)C)CC2)O3)cn1 (stereo not shown) [Example 114]
2,42,CC(C)OC(=O)N1CCC(C2Cc3cc(-c4ccc(S(C)(=O)=O)cc4F)ccc3O2)CC1 (stereo not shown) [Example 115]
3,770,COC(=O)c1cc(-c2ccc3c(c2)CC(C2CCN(C(=O)OC(C)C)CC2)O3)cs1 (stereo not shown) [Example 116]
4,374,CC(C)OC(=O)N1CCC(C2Cc3cc(-c4ccc(C(F)(F)F)nc4)ccc3O2)CC1 (stereo not shown) [Example 117]
5,15,CC(C)OC(=O)N1CCC(C2Cc3cc(-c4ccc(S(C)(=O)=O)c(F)c4)ccc3O2)CC1 (stereo not shown) [Example 118]
6,855,COc1cc(-c2ccc3c(c2)CC(C2CCN(C(=O)OC(C)C)CC2)O3)ccc1C#N (stereo not shown) [Example 119]
7,387,CC(C)OC(=O)N1CCC(C2Cc3cc(-c4ccc5c(cnn5C)c4)ccc3O2)CC1 (stereo not shown) [Example 120]
8,46,CC(C)OC(=O)N1CCC(C2Cc3cc(-c4ccc(NS(C)(=O)=O)cc4)ccc3O2)CC1 (stereo not shown) [Example 121]
9,30,"COCCN(C)C(=O)c1ccc(-c2ccc3c(c2)CC(C2CCN(C(=O)OC(C)C)CC2)O3)cc1 (stereo not shown) [Example 123, 4-(5-{4-[(2-Methoxy-ethyl)-methyl-carbamoyl]-phenyl}-2,3-dihydro-benzofuran-2-yl)-piperidine-1-carboxylic acid isopropyl ester]"
10,70,COCCN(C)C(=O)Cc1ccc(-c2ccc3c(c2)CC(C2CCN(C(=O)OC(C)C)CC2)O3)cc1 (stereo not shown) [Example 124]
11,110,CC(O)CCNC(=O)c1ccc(-c2ccc3c(c2)CC(C2CCN(C(=O)OC(C)C)CC2)O3)cc1 (stereo not shown) [Example 125]
12,168,CC(O)CCNC(=O)Cc1ccc(-c2ccc3c(c2)CC(C2CCN(C(=O)OC(C)C)CC2)O3)cc1 (stereo not shown) [Example 126]
13,25,COC1CCN(C(=O)c2ccc(-c3ccc4c(c3)CC(C3CCN(C(=O)OC(C)C)CC3)O4)cc2)CC1 (stereo not shown) [Example 127]
14,57,COC1CCN(C(=O)Cc2ccc(-c3ccc4c(c3)CC(C3CCN(C(=O)OC(C)C)CC3)O4)cc2)CC1 (stereo not shown) [Example 128]
15,73,CC(O)CNC(=O)c1ccc(-c2ccc3c(c2)CC(C2CCN(C(=O)OC(C)C)CC2)O3)cc1 (stereo not shown) [Example 129]
16,159,CC(O)CNC(=O)Cc1ccc(-c2ccc3c(c2)CC(C2CCN(C(=O)OC(C)C)CC2)O3)cc1 (stereo not shown) [Example 130]
17,95,CC(C)OC(=O)N1CCC(C2Cc3cc(-c4ccc(C(=O)N5CCC(O)C5)cc4)ccc3O2)CC1 (stereo not shown) [Example 131]
18,154,CC(C)OC(=O)N1CCC(C2Cc3cc(-c4ccc(CC(=O)N5CCC(O)C5)cc4)ccc3O2)CC1 (stereo not shown) [Example 132]
19,104,CC(C)OC(=O)N1CCC(C2Cc3cc(-c4ccc(C(=O)NCC#N)cc4)ccc3O2)CC1 (stereo not shown) [Example 133]
20,100,CC(C)OC(=O)N1CCC(C2Cc3cc(-c4ccc(CC(=O)NCC#N)cc4)ccc3O2)CC1 (stereo not shown) [Example 134]
